In patent US20260242394A1, “USP2 INHIBITORS AND METHODS OF USING THE SAME FOR THE TREATMENT OF DISEASES” (ICAHN SCHOOL OF MEDICINE AT MOUNT SINAI, priority 2023, published 2026):

System: ACE2-dependent pseudotypes
Assay type: cell-based

Compound: Cc1ccc(S(=O)(=O)Nc2ccc(C(F)(F)F)cc2C(=O)Nc2nc(-c3ccc(Br)cc3)cs2)cc1 [XH161-102 (MS102), N-(4-(4-bromophenyl)thiazol-2-yl)-2-((4-methylphenyl)sulfonamido)-5-(trifluoromethyl)benzamide]
- activity in preventing cell entry of ACE2-dependent pseudotypes: enhanced activity
